Here are results for 14 molecules from PubChem BioAssay (NCI).

Structures are written as SMILES.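 Protocol summary: plate cells (96-well), add compound at 5 concentrations, incubate 48 h, interpolate endpoints linearly. GI50 is the concentration that inhibits growth by half. At the TGI there is no net growth.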 A value given as a limit tells only on which side of the number the result lay.

Assay in all cases: NCI-60 cell line screen, 48 h
Test [1] concerns HS 578T breast.
Test [2] has as its system HCC-2998 colon.
In test [3] the test system is MALME-3M melanoma.
Test [4] has as its system HL-60(TB) leukemia.
Test [5] relates to T-47D breast.
Test [6] relates to HOP-62 NSCLC.
For test [7], the system named is RPMI-8226 leukemia.
Test [8] has as its system K-562 leukemia.
The test system of test [9] is OVCAR-5 ovarian.

For the molecule `O=S(Nc1ccccc1)c1ccc(N2CCOCC2)cc1` (centres undefined), the TGI in test [1] was more than 100 µM; in test [2] it was more than 100 µM; in [3] it was more than 100 µM; in [4], more than 100 µM; in test [5] it was 58.9 µM; in [6] it was more than 100 µM. Also, the TGI in test [7] and in test [8] was more than 100 µM each time.
For `Cc1ccc(OCC2OC(n3cnc4c(Cl)nc(N)nc43)CC2Oc2ccc(C)cc2)cc1` (centres undefined), the TGI in [1] was more than 100 µM; in [2], more than 57.4 µM; in test [3], more than 85.3 µM; in [4], more than 71.7 µM; in test [5], more than 100 µM; in [6] it was more than 52.5 µM. In addition, the TGI in test [7], in [9] and in test [8] was more than 100 µM throughout.
On to `O=[N+]([O-])c1ccc2sc(C=Nc3cnccn3)cc2c1`, for which the TGI in test [1] was 49.5 µM; in test [2], 40.7 µM; in [3] it was more than 100 µM; in test [4], 43.8 µM; in test [5], 28 µM; in test [6] it was more than 100 µM. The TGI in test [7] was 52.9 µM; in test [9] it was more than 100 µM; in [8], 88.6 µM.
As to `COc1cc([C@@H]2c3cc4c(cc3[C@@H](c3c(O)cc(O)c5c3O[C@H](c3ccc(O)c(O)c3)[C@@H](O)C5)[C@H]3COC(=O)[C@H]23)OCO4)cc(OC)c1OC`, the TGI in [1] is more than 100 µM; in test [2] it was 3.48 µM; in test [3], more than 100 µM; in [4], more than 100 µM; in test [5], 5.16 µM; in test [6], 3.76 µM. The TGI in test [7] came out at 59.4 µM; in [9] it was 69.7 µM; in test [8], 78.5 µM.
With `CCNC(=S)N=Nc1c(O)[nH]c2ccc([N+](=O)[O-])cc12`, the TGI is more than 100 µM in test [1]; 72.8 µM in test [2]; more than 100 µM in [3]; more than 100 µM in test [4]; more than 100 µM in [5]; more than 100 µM in test [6]. The TGI in test [7], in test [9] and in [8] was more than 100 µM in each case.
In the case of `O=c1[nH]nc(-c2ccccc2)n1/N=C\c1ccccc1`, the TGI in test [1], in test [2], in test [3], in [4], in test [5] and in test [6] was more than 100 µM in each case. The TGI in test [7], in test [9] and in test [8] was more than 100 µM in each case.
As to `COc1cccc(CCN2CCN(CCCc3ccccc3)CC2)c1`, the TGI in test [1], in [2], in test [3], in test [4], in test [5] and in test [6] was more than 100 µM throughout. Further, the TGI in [7], in test [9] and in test [8] was more than 100 µM each time.
As to `CCCC(=O)NC(Nc1ccc(S(=O)(=O)Nc2cc(C)on2)cc1)(C(=O)OCC)C(F)(F)F` (centres undefined), the TGI in [1], in [2], in test [3], in test [4], in test [5] and in test [6] was more than 100 µM throughout. Further, the TGI in test [7], in [9] and in test [8] was more than 100 µM throughout.
In the case of `C[N+](C)(C)c1ccc(C(N)C(=O)O)cc1` (centres undefined), the TGI in test [1], in [2], in test [3], in [4], in test [5] and in test [6] was more than 100 µM in each case. The TGI in test [7], in [9] and in test [8] was more than 100 µM each time.
Take `NCCCN(CCCN(C(=O)Nc1ccccc1)c1ccccc1)C(=O)Nc1ccccc1`: the TGI in test [1] was more than 100 µM; in [2] it was 62.3 µM; in test [3], 38.9 µM; in [4], 66.1 µM; in test [5], 79.3 µM; in test [6], 67.5 µM. Further, the results for the TGI in [7], in [9] and in [8] were 73 µM, more than 100 µM and more than 100 µM, respectively.
Consider `CC(=O)NCCC1CN(C(=O)/C=C/I)c2ccccc21` (centres undefined), for which the TGI in test [1] was 37 µM; in [2], 29.6 µM; in [3] it was 26.3 µM; in [4] it was more than 100 µM; in [5] it was 4.46 µM; in [6] it was 27.7 µM. Besides, the TGI was more than 60.5 µM in test [7], 29.3 µM in [9] and more than 100 µM in test [8].
For the molecule `COc1ccc(C2=Nc3cc(C)c(C)cc3NC(c3ccccc3)C2)cc1` (centres undefined), the TGI in test [1], in [2], in [3], in [4], in test [5] and in test [6] was more than 100 µM throughout. In addition, the TGI in test [7], in test [9] and in [8] was more than 100 µM throughout.
Take `NS(=O)(=O)c1ccc(/C=C/c2ccc(F)cc2)cc1`: the GI50 in [1] was 23.7 µM; in test [4] it was 37.3 µM; in test [7], 42.3 µM; in test [8], 14.9 µM. Also, the TGI in [1] is 77.7 µM; in test [2], more than 100 µM; in test [3] it was more than 100 µM; in test [4] it was more than 100 µM; in test [5] it was 57.6 µM; in test [6] it was 65.9 µM. Further, the TGI in test [7], in test [9] and in test [8] was more than 100 µM in each case.
Turning to `CN(C)c1ccc(/C(F)=C(F)/C(F)=C(F)/C(F)=C(\F)c2ccc(Br)cc2)cc1`, the TGI in test [1] was 52.6 µM; in test [2] it was more than 100 µM; in test [3], more than 71.8 µM; in test [4] it was more than 75 µM; in test [5] it was more than 100 µM; in test [6], more than 100 µM. For the same molecule, the TGI in test [7], in test [9] and in [8] was more than 100 µM each time.
